Like-named read-outs stand apart in the source and are kept apart here.
What was measured:
[1] = molecular target: T1, GST-cGB-PDE5 fusion protein (cGMP binding sites of human PDE5A) (Homo sapiens, UniProt O76074); experiment: cGMP binding assay with GST-cGB-PDE5 fusion protein; conditions: for competition with cGMP binding to GST-cGB-PDE5 at high concentration: compound 100 μM, cGMP 2 μM
T1 construct: made in house; host or cells: E. coli BL21 (DE3)
Method: 5′-3′, Inc. kits for total RNA followed by oligo (dT) column purification of mRNA are used with HT-29 cells. […] It is then cloned into pGEX-5X-3 glutathione-S-transferase (GST) fusion vector (Pharmacia Biotech )with tac promoter, and EcoRI and XhoI cut sites. The fusion vector is then transfected into E. Coli BL21 (DE3) bacteria (Invitrogen). The transfected BL21 bacteria is grown to log phase, and then IPTG is added as an inducer. The induction is carried at 20° C. for 24 hrs. The bacteria are harvested and lysed. The soluble cell lysate is incubated with GSH conjugated Sepharose 4B (GSH-Sepharose 4B). The GST-cGB-PDE5 fusion protein can bind to the GSH-Sepharose beads, and the other proteins are washed off from beads with excessive cold PBS.
Then, the mixture is transferred to Brandel MB-24 cell harvester with GF/B as the filter membrane followed by 2 washes with 10 mL of cold 5 mM potassium buffer(pH 6.8). The membranes are then cut out and transferred to scintillation vials followed by the addition of 1 mL of H2O and 6 mL of Ready Safe™ liquid scintillation cocktail to each vial. The vials are counted on a Beckman LS 6500 scintillation counter.
The quenching by filter membrane or other debris are also calibrated.

[2] = acute and seven-dose toxicity in dogs (capsules); type: in vivo
Method: Therefore, these dogs were subsequently administered seven consecutive doses of 1000 mg/kg/day.

28-day study in rats = type: in vivo; conditions: 28 days
Method: A 28-day study in rats was also carried out at 0, 50, 500 and 2000 mg/kg/day.

[3] = 91-day oral study in dogs; type: in vivo; conditions: 91 days, 150 and 300 mg/kg/day
[4] = system: TNF-α secreted by TPA-induced U937 cells; experiment: TNF-α immunoassay on U937 cell culture media; type: cell-based; conditions: cell culture media (FIG. 12)
Method: One function of macrophages is to modulate the activity of other inflammatory cells through various cytokine molecules.
TNF-α levels in the cell culture media were determined by using the TNF-α Immunoassay from R&D Systems (Cat. # DTA50) according to the manufacturer's protocol.

[5] = long-term safety assessment study in rats, 91 days; type: in vivo; conditions: males and females at 200 and 500 mg/kg/day
PDE5 = molecular target: T2, PDE5 (Homo sapiens, UniProt O76074); experiment: cGMP PDE inhibition, PDE5; type: biochemical
T2 construct: partially purified cGMP-specific PDE isolated from HT-29 cells; endogenous in cells; host or cells: HT-29

U937 cells = experiment: apoptosis induction of U937 cells (active caspase 3 indirect immunofluorescence); type: cell-based; conditions: 1 μM
Method: U937 cells (from ATCC Rockville, Md.) were grown in RPMI media supplemented with 5% FCS, glutamine, antibiotic/antimycotic and sodium pyruvate. Total RNA was isolated from two U937 cultures, one treated with 5 nM TPA for 48 hours and one grown in normal media as listed above, using the Rouche High Pure RNA Isolation Kit (cat#1 828 665) as per manufacturers protocol. cDNA was then synthesized from the total RNA using GibcoBRL SuperscriptII (Cat #18064-022) reverse transcriptase as per manufacturers protocol. The resulting cDNA was used as a template for RT-PCR reactions using primer sets specific for PDE2 (forward: […], reverse: […]) or PDE5 (forward: […], reverse: […]). mRNA for PDE2 and 5 were both present in the untreated U937 cells. Upon treatment with TPA, the relative amounts of PDE2 mRNA increased 5 fold. Therefore, U937 cells treated with TPA and driven to differentiate into an activated macrophage like state have elevated levels of PDE2 mRNA (see FIG. 1).
The presence of PDE2 and PDE5 protein within U937 cells was confirmed by indirect immunofluorescence (IIF). U937 cells were cultured as above. Two U937 cultures, one grown in the presence of 5 nM TPA for 48 hours and one grown in normal media were processed. […]
The level of apoptosis in U937 cells was quantified by scoring 500 consecutive cells for the presence of active caspase 3. […]

[6] = acute toxicity study in rats; type: in vivo
[7] = seven-day dose-range finding study in rats; type: in vivo; conditions: seven days, 2000 mg/kg/day
[8] = single, escalating dose human clinical safety study; type: in vivo; conditions: oral, 50 mg BID, 100 mg BID, 200 mg BID and 400 mg BED

CCCCOC1C2OP(=O)(O)OCC2OC1n1cnc2c(N)ncnc21 (stereo not shown) [2′-O-butyl-cAMP]
competition with cGMP in binding to cGMP binding sites of GST-cGB-PDE5 ([1]; 3H-cGMP 2 μM): did not compete

CCCCOC1C2OP(=O)(O)OCC2OC1n1cnc2c(=O)[nH]c(N)nc21 (stereo not shown) [2′-O-butyl-cGMP]
competition with cGMP in binding to cGMP binding sites of GST-cGB-PDE5 ([1]; 3H-cGMP 2 μM): did not compete

CC1=C(CC(=O)NCc2ccccc2)c2cc(F)ccc2/C1=C\c1ccncc1.Cl [Compound 38, (Z)-5-Fluoro-2-Methyl-(4-Pyridylidene)-3-(N-Benzyl)Indenylacetamide Hydrochloride]
oral LD50 [2]: greater than 1000 mg/kg
body weight changes, ophthalmoscopic examinations, hematological and blood chemistry values and urinalysis (28-day study in rats): unremarkable
liver and thyroid increases at the lower doses (28-day study in rats; lower doses): not statistically significant
feces [3]: Orange discoloration of the feces
level of TNF-α secreted [4]: significantly reduced
liver and thyroid/parathyroid weights [5]: dose-related trend to increased liver and thyroid/parathyroid weights
competition with cGMP in binding to cGMP binding sites of GST-cGB-PDE5 ([1]; 3H-cGMP 2 μM): does not bind to the cGMP-binding site
IC50 (PDE5): 4 µM
apoptosis as reflected by the presence of active caspase 3 (FIG. 8) (U937 cells): undergoing apoptosis
intraperitoneal LD50 ([6]; intraperitoneal): greater than 1000 mg/kg
oral LD50 ([6]; oral): > 2000 mg/kg
necropsy finding ([6]; single dose 1000 mg/kg intraperitoneally): mesenteric adhesions seen in some animals
effects [7]: labored breathing and/or abnormal respiratory sounds, decreased weights gains and food consumption in male rats, and increased liver weights in female rats
side effects [8]: no significant side effects at any dose

Nc1ncnc2c1ncn2[C@@H]1O[C@@H]2COP(=O)(O)O[C@H]2[C@H]1O [Cyclic AMP]
competition with cGMP in binding to cGMP binding sites of GST-cGB-PDE5 [1]: did not compete

O=c1[nH]cnc2c1ncn2[C@@H]1O[C@@H]2COP(=O)(O)O[C@H]2[C@H]1O [Cyclic IMP]
competition with cGMP binding to GST-cGB-PDE5 at high concentration [1]: can partially compete

Nc1nc2c(nc(Br)n2[C@@H]2O[C@@H]3COP(=O)(O)O[C@H]3[C@H]2O)c(=O)[nH]1 [Example 8-bromo-cGMP, 8-bromo-cGMP]
competition with cGMP binding to GST-cGB-PDE5 at high concentration [1]: can partially compete

O=C([O-])C1CCN(c2nc(NCc3ccc4c(c3)OCO4)c3cc(Cl)ccc3n2)CC1.[Na+] [Example E4021]
competition with cGMP in binding to cGMP binding sites of GST-cGB-PDE5 ([1]; 3H-cGMP 2 μM): None of the PDE5 inhibitors showed any competition

CSc1ccc(/C=C2/C(C)=C(CC(=O)O)c3cc(F)ccc32)cc1 [Sulindac sulfide, sulindac sulfide]
competition with cGMP in binding to cGMP binding sites of GST-cGB-PDE5 ([1]; 3H-cGMP 2 μM): None of the PDE5 inhibitors showed any competition

Nc1ccn([C@@H]2O[C@@H]3COP(=O)(O)O[C@H]3[C@H]2O)c(=O)n1 [cCMP, cyclic CMP]
competition with cGMP in binding to cGMP binding sites of GST-cGB-PDE5 ([1]; 3H-cGMP 2 μM): did not compete

O=c1ccn([C@@H]2O[C@@H]3COP(=O)(O)O[C@H]3[C@H]2O)c(=O)[nH]1 [cUMP, cyclic UMP]
competition with cGMP in binding to cGMP binding sites of GST-cGB-PDE5 ([1]; 3H-cGMP 2 μM): did not compete

CC1=C(CC(=O)O)c2cc(F)ccc2/C1=C\c1ccc(S(C)(=O)=O)cc1 [exisulind]
competition with cGMP in binding to cGMP binding sites of GST-cGB-PDE5 ([1]; 3H-cGMP 2 μM): None of the PDE5 inhibitors showed any competition

CCCOc1ccccc1-c1nc2nn[nH]c2c(=O)[nH]1 [zaprinast]
competition with cGMP in binding to cGMP binding sites of GST-cGB-PDE5 ([1]; 3H-cGMP 2 μM): None of the PDE5 inhibitors showed any competition

Source: patent publication US20060252762A1, “Methods for treatment of multiple sclerosis” (priority 2001, published 2006)
